# Patent US20240424103A1, “ANTICANCER AGENT, PRODRUG OF ANTICANCER AGENT, METHOD FOR KILLING CANCER CELL IN VITRO, CANCER […], AND CANCER TREATMENT DEVICE” (NATIONAL INSTITUTE OF ADVANCED INDUSTRIAL SCIENCE AND …, priority 2021, published 2024)
# Values joined by “and” are separate entries in the source; they are usually repeats but may differ in a detail not shown here. Equal values may be shown once.
# Experiments:
# [1] = test system: rat gastric mucosal-derived cancer cells (RGK-KO) versus rat gastric mucosal-derived cells (RGM-GFP); experiment: Cellular intake of ^15N_5-ALA by cancer cells and normal cells, quantitated by 4.43 MeV gamma rays from the ^15N resonance nuclear reaction; format: cell-based; conditions: 24 hours after the addition of ^15N_5-ALA; 1 mmol/L in culture medium; RGK-KO vs RGM-GFP
# Description: Rat gastric mucosal-derived cells (RGM-GFP) were prepared as normal cells and rat gastric mucosal-derived cancer cells (RGK-KO) were prepared as cancer cells, and the difference in cellular intake of ^15N_5-ALA between the RGM-GFP cells and RGK-KO cells was confirmed as follows. The rat gastric mucosal-derived cells and rat gastric mucosal-derived cancer cells are both derived from the rat and are widely used in research on anticancer agents because they have the same gene sequence (refer to Non-Patent Documents 6 and 7).
# The RGM-GFP cells and RGK-KO cells were cultured for 3 or 4 days on a culture solution adapted to each and were grown to 80% confluence; this was followed by the addition of ^15N_5-ALA and the amount of ^15N intake per cell with elapsed time was measured. […] The cells, which had grown with attachment to the bottom of the Petri dish, were detached from the Petri dish by the addition of trypsin, and the concentration of the liberated cells was measured.
# The concentration was adjusted, and 10^5 cells/2 μL was dripped onto a crystalline silicon substrate and drying was carried out. […] The 4.43 MeV gamma radiation emitted by this resonance nuclear reaction with ^15N was measured using a Bi4Ge3O12 (BGO) detector. […]
# The specific procedure for quantitating the ^15N_5-ALA intake by the RGM-GFP cells and RGK-KO cells was as follows. […]
# RGK-KO cells = experiment: Proton beam irradiation of RGK-KO cells cultured on ^15N_5-ALA-containing culture medium, surviving fraction by fluorescent protein image and DAPI staining; format: cell-based, rat; conditions: ^15N_5-ALA in medium 24 hours before irradiation, charge amount 4.0 nC, 1.3 MeV
# Source text: The RGK-KO cells and RGM-GFP cells cultured on a culture medium containing ^15N_5-ALA and the RGK-KO cells and RGM-GFP cells cultured on a culture medium not containing ^15N_5-ALA were in each instance held sealed in a vacuum along with the culture medium and were irradiated with a proton beam at a prescribed ion charge amount. With regard to the proton beam energy, considering the attenuation of the proton beam energy by the Torelina film and the culture solution sealed in the vacuum, the sample was irradiated at 1.3 MeV to match the 1.21 MeV resonance energy.
# The upper sections show images of RGM-GFP cells made to metabolize a fluorescent protein by genetic recombination; the lower sections each show photographs in which the dead cells are identified by the DAPI staining method, which stains the DNA in the nucleus of dead cells. […]
# The photographs in FIG. 20 show the case of a proton beam irradiation amount of charge of 4.0 nC for both cells. Genes for the metabolism of fluorescent protein are also incorporated in the RGK-KO cells, and the cells present a red color when observed with a fluorescence microscope. […]
smiles,measurement,setting,value
"[15NH2]CC(=O)CCC(=O)O [^15N_5-ALA, 5-aminolevulinic acid in which the nitrogen is nitrogen-15]",intake of ^15N_5-ALA by cancer cells relative to the intake by the normal cells,[1],at least 5 times
same,surviving fraction immediately after (within three hours) proton beam irradiation,RGK-KO cells,73.5% and 85.5%
